Read-outs that look alike come from different tables or passages of the source.
Assays:
[1] = in vitro; conditions: pig
Protocol: (§1) For transfer studies from the apical (blood) side to the basolateral compartment (brain side), 1 µM of mycotoxins were applied on the apical side of the Transwell® filter compartment. Over 48 h, OTA, OTα, CIT, and DHCIT were quantified at eight points in time in both compartments by HPLC-MS/MS in order to investigate the transfer and potential metabolism of the applied compounds.
(§2) Both devices were operated with Analyst 1.6.2 software (SCIEX Germany GmbH, Darmstadt, Germany). Chromatographic separation of OTA, OTα, CIT, and DHCIT was performed on a 100 mm × 2.1 mm Halo RP-Amide 2.7 µm column (Advanced Materials Technology, Wilmington, NC, USA) equipped with an Ultra filter (KrudKatcher, Phenomenex, Aschaffenburg, Germany) at 40 °C using a gradient of ACN+1% formic acid (FA) (Solvent A) and H2O+1% FA (solvent B) at a flow rate of 250 µL/min. […] Afterwards, the column was re-equilibrated for 4 min. An injection volume of 5 µL was used. A diverter valve was used to exclude the first 5 min of the HPLC run from the mass spectrometer and reduce matrix contamination. The Ion Drive Turbo V ion source was heated to 400 °C. Further conditions were curtain gas (CUR) 35 psi N2, nebuliser gas (GS1) 45 psi N2, heater gas (GS2) 55 psi N2, and ion spray voltage 4500 V in positive and −4500 V in negative ionization mode; each MRM transition was monitored for 5 ms. Detailed mass spectrometer settings are given in the Supplementary Materials of this article.
(§3) The permeability coefficients p were calculated according to (1) as described in detail in [15]:(1) p[cm/s]=cbas[%]/[…]·Vap[cm³]/A[cm^2]·t[s] where cbas is the mycotoxin concentration in the basolateral compartment at a certain time t [s]. The initial concentration in the apical compartment is c0 h,ap and Vap is the volume of the compartment at the beginning of the experiment. A is the area of the filter insert membrane. The resulting permeability of the mycotoxin across the cell monolayer pc was calculated as shown in (2):(2) 1/pc [cm/s]=1/pc+f [cm/s][…]1/pf[cm/s] where pc+f is the permeability coefficient of the transfer study and pf the permeability coefficient of the cell-free polycarbonate filter membrane. […]
(§4) serum) and centrifugation at 220 × g at 20 °C for 10 min the supernatant was removed. Fresh complete medium was added and the cell pellet was gently resuspended twice to a final concentration of 150,000 cells/mL. 100 μ L of this suspension were seeded on rat‐tail collagen coated 96‐well plates (rat‐ tail collagen was isolated as described previously) resulting in 15,000 cells per well. PBCEC were incubated at 37 °C, 5% CO2 in a saturated humidified atmosphere. After 48 h the medium was replaced with serum‐free medium (DMEM/Ham’s F‐12 with 100 U/mL penicillin, 100 μg/mL […]
(§5) Aldrich, Steinheim, Germany)). […]
(§6) The thawing and seeding procedure was performed according to the protocol already described for the viability test as previously published. Instead of using 96‐well plates, 500 μL PBCEC suspension (500,000 cells/mL) were seeded in the upper (apical) compartment of a 12‐well Transwell®

[2] = tested on: PBCEC monolayer; experiment: in vitro; conditions: for amount in the apical compartment after 48 h, of initially applied amount / amount transferred to the basolateral compartment after 48 h, of initially applied amount: 1 µM (760 pmol) apical, n = 9
Protocol: as §1, §2, §3, §4, §5, §6

[3] = tested on: PBCEC monolayer; format: in vitro ADME, porcine; conditions: 200 nM in both compartments; for effect of probenecid on the enrichment in the apical compartment: 100 µM probenecid; for concentration in the apical compartment after 48 h / concentration in the basolateral compartment after 48 h: n = 3; for mycotoxin amounts extracted from the cells and filter membranes, of the initially applied amount: data not shown
Protocol: To analyse any active transport the mycotoxins were applied in the apical and basolateral compartments in equimolar concentrations of 200 nM. In a second set of experiments, 100 µM probenecid were added to both compartments 1 h before mycotoxin incubation in order to elucidate the effects of the OAT transport proteins. […] The mycotoxin concentrations were analysed as described above by HPLC-MS/MS.
For active transport studies, the cells were treated as described for transfer studies, with the only difference being that the compounds were applied on the apical and basolateral side in equimolar 200 nM concentrations (see Supplementary Materials). To investigate whether probenecid has an effect on the active transfer of the mycotoxins via OAT, 100 µM probenecid was applied to the apical and basolateral compartment 1 h before mycotoxin application and maintained until the end of the experiment.
Afterwards, the column was re-equilibrated for 4 min. An injection volume of 5 µL was used.
5. Active transport studies
To study the active transfer properties, the cells were treated in the same manner as for the normal transfer studies, but the mycotoxins were incubated on the apical and basolateral side in equimolar 200 nM concentrations as previously described. To investigate whether probenecid has an effect on the active transfer of the mycotoxins via OAT, 100 μM probenecid was applied to the apical and basolateral compartment 1 h before mycotoxin application and maintained until the end […]
after applying the mycotoxins using HPLC‐MS/MS. […]

[4] = tested on: PBCEC; experiment: Electrical capacitance cCL of the cell monolayer by impedance spectroscopy; format: cell-based, porcine; conditions: 1 µM apical, referred to t = 0 h, n = 9 (negative control 99 ± 2%)
Protocol: In order to study the barrier integrity PBCEC were incubated with 1 µM OTA, OTα, CIT and DHCIT in the apical compartment (blood side) of Transwell® filter inserts for 48 h. The TEER values as well as the electrical capacitance (cCL) were monitored by cellular impedance spectroscopy (Figure 4A,B). As a negative control the permeability of […] was measured after 48 h. Sucrose is not transported by any cellular transport protein and represents a marker for an intact BBB.
Besides the TEER values, the electrical capacitance cCL of the cell monolayer was also monitored for 48 h (Figure 4B). As cellular bilayer membranes behave like an electrical capacitor, they influence the cellular impedance. Changes in cCL are markers for the integrity of the cells. Weak cytotoxic effects lead to a reduction of cCL, whereas strong cytotoxic effects result in an exponential increase in cCL to more than 150% due to the usually observed detachment of the cells from the surface.
For barrier integrity, TEER values were monitored using a cellZscope® cellular impedance spectrometer (nanoAnalytics, Münster, Germany). […]. The detailed protocols can be found in the Supplementary Materials.
After 48 h the medium was […]
The Transwell® filters were briefly […]
equipped with a 24 12‐well Transwell® filter setup. Each well was previously filled with 1650 μL serum‐free medium. Transendothelial electrical resistances (TEER) were analyzed using the cellZscope® device. Only Transwell® filters with TEER values of more than 600 Ω∙cm² and electrical […]
76 μ L of the medium in the apical […]
concentration of the mycotoxins was 1 μM at the beginning of the mycotoxin incubation. The final solvent concentration was 0.1% ACN. […]
and 48 h after toxin application. […]

[5] = 100 µM probenecid from 1 h before

SMILES | Papp A→B [1] [×10⁻⁶ cm/s] | amount in the apical compartment after 48 h, of initially applied amount [2] [%] | amount transferred to the basolateral compartment after 48 h, of initially applied amount [2] [%] | effect of probenecid on the enrichment in the apical compartment [3] | concentration in the apical compartment after 48 h [3, 5] [nM] | concentration in the basolateral compartment after 48 h [3, 5] [nM] | concentration in the apical compartment after 48 h ([3]; without probenecid) [nM] | concentration in the basolateral compartment after 48 h ([3]; without probenecid) [nM] | mycotoxin amounts extracted from the cells and filter membranes, of the initially applied amount [3] | electrical capacitance cCL after 48 h [4] [%] | permeability relative to the negative control 14C sucrose (factor) ([2]; pig)
C[C@@H]1Cc2c(Cl)cc(C(=O)N[C@@H](Cc3ccccc3)C(=O)O)c(O)c2C(=O)O1 [OTA, Ochratoxin A] | 0.38 ± 0.08 | 96 ± 7 | 14 ± 3 | minor almost negligible effect | 292 ± 28 | 224 ± 6 | 275 ± 32 | 206 ± 4 | below 1% | 96 ± 4 | 
CC1=C2C(=CO[C@H](C)[C@H]2C)C(O)=C(C(=O)O)C1=O [CIT, Citrinin] | 1.79 ± 0.4 | 67 ± 3 | 40 ± 4 | some effect of probenecid cannot be dismissed | 205 ± 21 | 180 ± 12 | 266 ± 18 | 182 ± 1 | below 1% | 97 ± 4 | ca. 4
Cc1c(O)c(C(=O)O)c(O)c2c1[C@H](C)[C@@H](C)OC2=O [DHCIT, dihydrocitrinone] | 0.51 ± 0.14 | 87 ± 13 | 14 ± 3 |  | 250 ± 15 | 178 ± 15 | 278 ± 7 | 186 ± 6 | below 1% | 99 ± 4 | 
C[C@@H]1Cc2c(Cl)cc(C(=O)O)c(O)c2C(=O)O1 [OTα, ochratoxin α] | 0.68 ± 0.15 | 86 ± 6 | 19 ± 4 | weak | 236 ± 16 | 187 ± 1 | 268 ± 10 | 194 ± 5 | below 1% | 98 ± 2 | 

From paper PMC8147254, “Efflux at the Blood-Brain Barrier Reduces the Cerebral Exposure to Ochratoxin A, Ochratoxin α, Citrinin and Dihydrocitrinone” (Toxins, 2021)
